pIC50: −log10 of the molar value.
What was measured:
[1] = tested on: LNCap prostate tumor cells; test: In vitro cell growth assay (MTS), LNCap; assay type: cell-based, human; conditions: three days after drug treatment
Experimental: (§1) Cell lines used were human adenocarcinoma (LoVo), […], prostate (LNCap), breast (MDA468, MCF7), colon (HCT116), renal (HTB44 A498), and ovarian (OVCAR3) tumor cell lines. The tumor cells were plated in 96-well culture plates at approximately 3000 cells per well. One day following plating, various concentrations of inhibitors in DMSO were added to cells (final DMSO concentration in cell assays was 0.25%). Three days after drug treatment, viable cell densities were determined by cell mediated metabolic conversion of the dye MTS, a well-established indicator of cell proliferation in vitro. Cell growth assays were performed using kits purchased from Promega Corporation (Madison, Wis.), following the protocol provided by the vendor. Measuring absorbance at 490 nm generated MTS assay results. Compound effect on cell proliferation was assessed relative to untreated control cell growth.

[2] = molecular target: PI3Kα (Homo sapiens, UniProt P42336); test: PI3Kα fluorescence polarization assay; assay type: biochemical; conditions: 20 μM PIP2, 25 μM ATP
Experimental: The reaction buffer was 20 mM HEPES pH7.5, 2 mM MgCl2, 0.05% CHAPS, and 0.01% βME (added fresh). The substrate solution was 40 μM PIP2 (diC8, Echelon, Salt Lake City Utah cat #P-4508, 1 mM in water) and 50 μM ATP in the reaction buffer. Nunc 384-well black polypropylene fluorescent plates were used for PI3K assays. The assay is run by putting 9.5 μl of freshly diluted enzyme in the reaction buffer per well, adding 0.5 μl of diluted drug or DMSO, and mixing. Then 10 μl of the substrate solution is added to each well to start the reaction. A final concentration of 20 μM PIP2 and 25 μM ATP in the reaction was used. Reactions were allowed to proceed for 30-60 minutes at room temperature. After 30-60 minutes, 20 μl of a solution of 10 nM TAMRA detector (Red detector probe-Echelon) and 2.5 uM of GST-murine GRP (1.5 mg/ml in 17% glycerol) was added per well to stop the reaction. The resulting solution was mixed well and allowed to stand for 90-110 minutes before reading plate. Assay Plates were read on Perkin-Elmer Envision plate readers with appropriate filters for Tamra [BODIPY-TMRI(1,3,4,5)P4]. Data obtained were used to calculate enzymatic activity and enzyme inhibition by inhibitor compounds. It is important to keep Red probe solutions dark. This procedure is adapted from Echelon Biosciences Inc procedure for their PI3-Kinase fluorescence polarization activity Assay kit Product number K-1100.

[3] = tested on: MDA468 breast tumor cells; test: In vitro cell growth assay (MTS), MDA468; assay type: cell-based, human; conditions: three days after drug treatment
Experimental: as §1

[4] = molecular target: human TOR (FLAG-TOR) (Homo sapiens, UniProt P42345); test: mTOR enzyme assay (DELFIA format, purified enzyme); assay type: biochemical; conditions: 800 ng/ml FLAG-TOR, 100 μM ATP, 1.25 μM His6-S6K; read-out: mTOR Kinase IC50

Sequence of PI3Kα (P42336 whole entry, species assumed): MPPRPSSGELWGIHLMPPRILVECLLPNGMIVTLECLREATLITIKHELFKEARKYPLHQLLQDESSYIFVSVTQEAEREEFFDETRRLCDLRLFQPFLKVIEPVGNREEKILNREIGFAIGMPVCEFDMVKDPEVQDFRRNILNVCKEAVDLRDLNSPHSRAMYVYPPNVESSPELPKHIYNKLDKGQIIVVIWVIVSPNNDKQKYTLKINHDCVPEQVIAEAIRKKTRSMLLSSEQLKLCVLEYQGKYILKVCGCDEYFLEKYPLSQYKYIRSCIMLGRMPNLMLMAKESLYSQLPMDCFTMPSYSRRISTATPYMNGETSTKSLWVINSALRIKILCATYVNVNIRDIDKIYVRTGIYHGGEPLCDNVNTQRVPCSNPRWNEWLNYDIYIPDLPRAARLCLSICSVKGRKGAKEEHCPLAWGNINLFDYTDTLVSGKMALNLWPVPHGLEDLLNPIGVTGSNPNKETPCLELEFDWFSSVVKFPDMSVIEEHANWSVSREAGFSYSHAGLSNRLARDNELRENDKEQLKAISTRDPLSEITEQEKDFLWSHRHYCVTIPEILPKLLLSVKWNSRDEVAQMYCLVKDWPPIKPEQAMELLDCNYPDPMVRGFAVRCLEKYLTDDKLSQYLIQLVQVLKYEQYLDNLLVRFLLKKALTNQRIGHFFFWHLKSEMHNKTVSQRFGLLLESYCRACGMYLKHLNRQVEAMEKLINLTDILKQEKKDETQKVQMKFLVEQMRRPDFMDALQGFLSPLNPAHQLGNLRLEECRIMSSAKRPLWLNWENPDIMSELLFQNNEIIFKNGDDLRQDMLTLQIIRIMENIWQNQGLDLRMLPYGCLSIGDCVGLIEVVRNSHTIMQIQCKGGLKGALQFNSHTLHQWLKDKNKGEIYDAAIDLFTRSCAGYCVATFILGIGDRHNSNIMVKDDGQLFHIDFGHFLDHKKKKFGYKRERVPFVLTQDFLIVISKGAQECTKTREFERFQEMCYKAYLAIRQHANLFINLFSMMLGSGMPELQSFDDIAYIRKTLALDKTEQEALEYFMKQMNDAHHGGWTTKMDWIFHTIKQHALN
Sequence of PI3Kα (P27986 whole entry partner, species assumed): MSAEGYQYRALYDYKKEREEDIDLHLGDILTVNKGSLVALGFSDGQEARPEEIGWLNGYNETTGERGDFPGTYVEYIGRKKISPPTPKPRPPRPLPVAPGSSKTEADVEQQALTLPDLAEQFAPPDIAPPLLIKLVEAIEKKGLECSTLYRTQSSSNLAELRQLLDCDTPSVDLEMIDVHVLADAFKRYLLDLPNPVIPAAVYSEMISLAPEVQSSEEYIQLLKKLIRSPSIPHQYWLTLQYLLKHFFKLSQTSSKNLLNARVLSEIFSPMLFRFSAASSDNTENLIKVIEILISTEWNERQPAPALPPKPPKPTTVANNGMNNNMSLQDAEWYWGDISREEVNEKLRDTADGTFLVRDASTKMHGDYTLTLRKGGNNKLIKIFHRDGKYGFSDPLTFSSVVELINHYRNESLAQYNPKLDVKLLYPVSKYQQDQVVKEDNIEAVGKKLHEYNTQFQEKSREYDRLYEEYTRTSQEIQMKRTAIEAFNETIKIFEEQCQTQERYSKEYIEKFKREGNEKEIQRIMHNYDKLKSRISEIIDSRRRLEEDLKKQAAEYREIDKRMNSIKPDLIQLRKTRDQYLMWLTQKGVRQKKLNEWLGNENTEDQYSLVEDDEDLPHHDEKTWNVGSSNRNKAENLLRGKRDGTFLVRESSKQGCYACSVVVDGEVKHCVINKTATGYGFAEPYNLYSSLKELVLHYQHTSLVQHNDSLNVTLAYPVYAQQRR

| SMILES | pIC50 ([1]; Homo sapiens, LNCaP, 72 h) | pIC50 [2] | pIC50 ([3]; Homo sapiens, 72 h) | pIC50 [4] | pIC50 [1] | pIC50 [3] |
| --- | --- | --- | --- | --- | --- | --- |
| CC(Nc1cccc(Oc2cc(=O)[nH]c3ccccc23)c1)c1cccnc1 (centres unmarked) | 5.48 | 5.45 | 4.96 | 6.72 | – | – |
| Cc1cccc(Oc2cc(=O)[nH]c3ccccc23)c1 [drawing 249] | – | 6.13 | – | 6.62 | 5.12 | 4.70 |
| O=c1cc(Oc2cccc(-c3ccoc3)c2)c2ccccc2[nH]1 | 5.21 | 5.36 | 6.52 | 6.46 | – | – |
| O=c1cc(Oc2ccccc2C(F)(F)F)c2ccccc2[nH]1 | < 4.22 | 6.51 | < 4.22 | 5.78 | – | – |
| O=c1cc(Oc2cccc(NCc3cccnc3)c2)c2ccccc2[nH]1 | 5.49 | < 5.00 | 5.01 | 7.10 | – | – |
| CNc1ncccc1CNc1cccc(Oc2cc(=O)[nH]c3ccccc23)c1 | 5.55 | < 5.00 | 5.17 | 7.05 | – | – |
| O=c1cc(Oc2ccc(C(F)(F)F)cc2)c2ccccc2[nH]1 | < 4.22 | 5.64 | < 4.22 | < 4.70 | – | – |
| Cn1cc(-c2ccc(Oc3cc(=O)[nH]c4ccccc34)cc2)cn1 | 5.89 | 5.64 | < 4.22 | 5.70 | – | – |
| O=c1cc(Oc2cccc(-c3ccc(Cl)nc3)c2)c2ccccc2[nH]1 | < 4.22 | < 5.00 | < 4.22 | < 4.70 | – | – |
| O=c1cc(Oc2ccccc2)c2cc(Cl)ccc2[nH]1 | 4.89 | 5.29 | < 4.22 | 5.17 | – | – |
| O=c1cc(Oc2ccccc2)c2ccc(-c3cn[nH]c3)cc2[nH]1 | < 4.22 | 5.56 | < 4.22 | < 4.70 | – | – |
| CN(C)CCCOc1ccc(-c2ccc(Oc3cc(=O)[nH]c4ccccc34)cc2)cn1 | 5.68 | < 5.00 | 5.41 | 6.09 | – | – |
| CCN1CCCC(Nc2ccc(-c3cccc(Oc4cc(=O)[nH]c5ccccc45)c3)cc2)C1 (centres unmarked) | 5.41 | 5.10 | 5.00 | 6.51 | – | – |
| CC(Nc1cccc(Oc2cc(=O)[nH]c3ccccc23)c1)c1ccncc1 (centres unmarked) | 5.51 | 5.12 | 4.96 | 6.85 | – | – |
| CC(C)(C)OC(=O)N1CC=C(c2cccc(Oc3cc(=O)[nH]c4ccccc34)c2)CC1 | 4.89 | 5.02 | 4.49 | 6.19 | – | – |
| COC(=O)c1cc(Oc2cc(=O)[nH]c3ccccc23)ccc1OC | 5.10 | < 5.00 | < 4.22 | 5.89 | – | – |
| O=c1cc(Oc2cccc(NCCc3cccnc3)c2)c2ccccc2[nH]1 | 5.40 | < 5.00 | 4.94 | 6.92 | – | – |
| O=c1cc(Oc2ccc(F)cc2)c2ccccc2[nH]1 | 4.74 | 5.80 | < 4.22 | 6.22 | – | – |
| CC(C)(C)OC(=O)N1CCN(c2ccc(-c3cccc(Oc4cc(=O)[nH]c5ccccc45)c3)cc2)CC1 | 4.22 | 5.00 | 4.36 | 5.23 | – | – |
| O=c1cc(Oc2ccccc2)c2cc(-c3cn[nH]c3)ccc2[nH]1 | < 4.22 | 6.43 | < 4.22 | 4.72 | – | – |
| O=c1cc(Oc2ccccc2)c2ccccc2[nH]1 | 5.05 | 4.62 | 4.22 | 6.43 | – | – |
| O=c1cc(Oc2cccc(NCc3cccs3)c2)c2ccccc2[nH]1 | 5.27 | < 5.00 | < 4.22 | 7.10 | – | – |
| Cc1n[nH]c(C)c1-c1ccc(Oc2cc(=O)[nH]c3ccccc23)cc1 | < 4.22 | 5.16 | < 4.22 | 5.73 | – | – |
| NS(=O)(=O)c1ccc(-c2cccc(Oc3cc(=O)[nH]c4ccccc34)c2)cc1 | < 4.22 | < 5.00 | 4.22 | 6.59 | – | – |
| Cn1cc(-c2cccc(Oc3cc(=O)[nH]c4ccccc34)c2)cn1 | < 4.22 | < 5.00 | 4.22 | 6.74 | – | – |
| O=c1cc(Oc2cccc(-c3cccc(NCc4cccnc4)c3)c2)c2ccccc2[nH]1 | 5.10 | < 5.00 | 4.55 | 6.29 | – | – |
| CS(=O)(=O)Nc1cccc(-c2cccc(Oc3cc(=O)[nH]c4ccccc34)c2)c1 | 5.19 | 5.45 | 4.74 | 6.24 | – | – |
| O=c1cc(Oc2cccc(-c3ccc(NC4CCNCC4)cc3)c2)c2ccccc2[nH]1 | 5.64 | < 5.00 | 5.42 | 7.05 | – | – |
| O=c1cc(Oc2ccc(I)cc2)c2ccccc2[nH]1 | < 4.22 | < 5.00 | 4.74 | 6.13 | – | – |
| NCc1ccc(Oc2cc(=O)[nH]c3ccccc23)cc1 | 4.92 | < 5.00 | 4.46 | 5.40 | – | – |

More lines, now with the values ahead:

| pIC50 ([1]; Homo sapiens, LNCaP, 72 h) | pIC50 [2] | pIC50 ([3]; Homo sapiens, 72 h) | pIC50 [4] | pIC50 [1] | pIC50 [3] | SMILES |
| --- | --- | --- | --- | --- | --- | --- |
| 5.72 | 5.05 | 5.14 | 7.30 | – | – | O=c1cc(Oc2cccc(NCc3cncc(F)c3)c2)c2ccccc2[nH]1 |
| 5.02 | 5.17 | 4.52 | 6.22 | – | – | O=c1cc(Oc2cccc(-c3cccc(CN4CCOCC4)c3)c2)c2ccccc2[nH]1 |
| 5.47 | 5.33 | 4.89 | 6.89 | – | – | O=c1cc(Oc2cccc(NCc3ccco3)c2)c2ccccc2[nH]1 |
| 5.15 | 5.10 | 4.40 | 6.02 | – | – | O=c1cc(Oc2ccccc2Br)c2ccccc2[nH]1 |
| < 4.22 | 5.28 | < 4.22 | 6.15 | – | – | O=c1cc(Oc2cccc(-c3ccc(NCc4ccncc4)cc3)c2)c2ccccc2[nH]1 |
| 5.32 | < 5.00 | 5.15 | 6.82 | – | – | O=c1cc(Oc2cccc(-c3ccc(N4CCNCC4)nc3)c2)c2ccccc2[nH]1 |
| 5.24 | < 5.00 | 4.59 | 6.57 | – | – | CS(=O)(=O)Nc1ccc(-c2cccc(Oc3cc(=O)[nH]c4ccccc34)c2)cc1 |
| 5.70 | 6.11 | 4.22 | < 4.70 | – | – | Nc1ccc(-c2ccc(Oc3cc(=O)[nH]c4ccccc34)cc2)cc1 |
| < 4.22 | 5.06 | < 4.22 | 5.87 | – | – | O=c1cc(Oc2cccc(C(F)(F)F)c2)c2ccccc2[nH]1 |
| 5.42 | < 5.00 | 5.00 | 7.10 | – | – | CN(C)CCCOc1ccc(-c2cccc(Oc3cc(=O)[nH]c4ccccc34)c2)cn1 |
| 5.39 | 5.39 | 4.92 | 6.51 | – | – | COc1ccc(CNc2cccc(Oc3cc(=O)[nH]c4ccccc34)c2)cn1 |
| < 4.22 | < 5.00 | 6.15 | 6.40 | – | – | O=c1cc(Oc2cccc(-c3ccco3)c2)c2ccccc2[nH]1 |
| < 4.22 | 5.60 | < 4.22 | < 4.70 | – | – | O=c1cc(Oc2ccc(-c3ccsc3)cc2)c2ccccc2[nH]1 |
| 6.10 | 5.05 | 5.92 | 6.25 | – | – | CN1CCN(c2cc(-c3ccc(Oc4cc(=O)[nH]c5ccccc45)cc3)ccn2)CC1 |
